The test system of data set [1] is MES-induced tonic seizures. Description: Maximal electroshock seizure (MES) test in mice with isobolographic/CalcuSyn DDI analysis. Format: in vivo, mouse. To be noted: for Dose Reduction Index (DRI): in CBD/FEN combination vs drug alone; for doses with statistically significant (p<0.05) anticonvulsant effect vs vehicle: Experiment A, single drug; for doses with statistically significant (p<0.05) anticonvulsant effect vs vehicle / effect on incidence of MES vs vehicle, drug alone: i.p.; for doses with statistically significant (p<0.05) anticonvulsant effect vs vehicle / ED50: mouse MES; for effect on incidence of MES vs vehicle, drug alone: Experiment B, low doses alone; for ED50: median-effect curves, drug alone, read-out: potency (Dm or ED50). How it is done: The study was performed in two phases. […] Secondly, (Experiment B), drug-drug interactions (DDI) and anticonvulsant activities for CBD/FEN in combination were determined.
Experiment A was performed using 160 male, C57Bl6 mice, weighing between 20.1-30.1 g, and Experiment B was performed using 126 male, C57Bl6 mice, weighing between 19.2-26.1 g, purchased from a licensed breeder (Charles River, UK).
The following drugs were used in this study: Purified botanical CBD provided by GW Research Ltd., fenfluramine hydrochloride (FEN) purchased from Sigma Merck. The control vehicle used was 1:1:18 (5% ethanol, 5% Kolliphor EL, 90% saline). CBD and FEN were dissolved in the same control vehicle for comparison.
Animals were dosed (10 ml/kg) i.p. at 60 min for CBD and 30 min for FENS pre-treatment times, prior to MES and before plasma and brain sampling immediately post-MES test.
Here, doses were selected based on known ED50 and NOAELs for all the drugs and were: CBD-BOT [10, 30, 50, 70 and 100 mg/kg] and FEN [1, 2, 3, 5 and 10 mg/kg]. The number of animals in each of these groups were 10 (n=10), and 160 in total.
For Experiment B, in addition to the vehicle group, three dose groups were used for each of the treatments. Here, doses were selected based on analysis of the data obtained from Experiment A according to methods described for determination of isobolographic interactions. Doses as CBD/FEN combination were [20.9/2.5, 13.6/3.9 and 28.3/1.2 mg/kg]. The number of animals in each of these groups were 10 (n=10), and with individual CBD, FEN and VPA doses n=190 in total.
Electroconvulsions were produced by application of a fixed current intensity of 30 mA (0.2 sec duration) delivered via corneal electrodes. […] Mice were individually assessed for production of seizure determined by presence or absence of tonic hindlimb extension following current application.
Data were collected by an observer unaware of the treatment received by each animal.
The protective activities of CBD and FEN administered alone were evaluated and expressed as effective doses (ED50; mg/kg based on dose administered) and effective exposures (EE50; μM based on bioanalysis of brain samples) where EX50 is defined as the dose or brain exposure required to protect 50% of mice from MES-induced tonic seizures. CBD/FEN combinations were evaluated at 3 fixed ratios (1:3, 1:1 and 3:1) based on an EE50 derived from an assumption of linearly additive effects of EEs of the two drugs in combination.
For the three fixed-ratio CBD/FEN combinations (1:3, 1:1 and 3:1), calculations were based on Loewe's equation of additivity as follows; x/EE50(CBD)+y/EE50(FEN)=1; where x=the exposure of CBD and y=the exposure at which […], when co-administered with FEN, should theoretically exert the desired/additive 50% effect. Subsequently, CBD and FEN doses corresponding to 50% of respective EE50 were used for the CBD/FEN 1:1 ratio. Similarly, dose proportions were calculated for the CBD/FEN 1:3 and 3:1 ratios based on theoretical additive EE50.
The percentage protection of animals against MES-induced seizure were plotted against doses of AED alone (CBD or FEN) from Experiment A as log-probit linear regression analysis to derive ED50 and EE50.
Loewe's equation of additivity was used to determine fractions of EE50 in the three ratios 1:3, 1:1 and 3:1 for each of the combinations CBD/FEN. Graphs were plotted in Prism, for CBD and FEN to determine relationships versus these exposures to determine actual doses for the combination study (Experiment B).
DDI using these three-fixed dose-ratios of CBD/FEN was assessed using CalcuSyn v2.11 (Biosoft).

Data set [2] relates to seizure frequency in patients with Dravet syndrome. The note with it: low dose between 0.25 and 1.0 mg/kg/day; cited from earlier work.
The target of data set [3] is T1, human 5-HT2B receptor (Homo sapiens, UniProt P41595).
T1 construct: expressed in transfected cells; host or cells: CHO cells
T1 sequence (P41595 whole entry): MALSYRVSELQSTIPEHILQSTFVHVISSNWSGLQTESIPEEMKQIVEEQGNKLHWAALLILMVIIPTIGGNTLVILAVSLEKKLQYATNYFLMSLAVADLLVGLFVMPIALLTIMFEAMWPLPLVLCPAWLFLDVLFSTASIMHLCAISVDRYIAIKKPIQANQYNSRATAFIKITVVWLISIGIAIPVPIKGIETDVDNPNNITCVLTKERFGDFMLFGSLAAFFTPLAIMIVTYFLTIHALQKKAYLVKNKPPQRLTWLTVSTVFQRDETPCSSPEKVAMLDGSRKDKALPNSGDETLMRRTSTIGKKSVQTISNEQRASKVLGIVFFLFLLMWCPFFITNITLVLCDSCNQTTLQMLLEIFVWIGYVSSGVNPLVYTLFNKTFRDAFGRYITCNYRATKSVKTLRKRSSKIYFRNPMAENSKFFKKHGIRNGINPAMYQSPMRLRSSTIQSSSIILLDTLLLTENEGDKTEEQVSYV
Description: 5-HT2B antagonist effect, IP1 production (HTRF) in transfected CHO cells. The data set is classed as cell-based. The note with it: antagonism of 30 nM 5-HT. How it is done:
(§1) Evaluation of the activity of CBD and 7-OH-CBD at the human 5-HT2B receptor was undertaken in transfected CHO cells. Such activity as either an agonist or antagonist was determined by measuring their effects IP1 production using the HTRF detection method.
Cells were suspended in a buffer containing 10 mM Hepes/NaOH (pH 7.4), 4.2 mM KCl, 146 mM NaCl, 1 mM CaCl2), 0.5 mM MgCl2, 5.5 mM glucose and 50 mM LiCl, then distributed in microplates at a density of 4.104 cells/well and preincubated for 5 min at room temperature in the presence of buffer (basal control), test compound or reference antagonist.
Thereafter, the reference agonist 5-HT is added at a final concentration of 30 nM. […] Following 30 min incubation at 37° C., the cells are lysed and the fluorescence acceptor (D2-labeled IP1) and fluorescence donor (anti-IP1 antibody labelled with europium cryptate) are added.
After 60 min at room temperature, the fluorescence transfer is measured at ex=337 nm and λ em=620 and λ 665 nm using a microplate reader (Rubystar, BMG).
(§2) The IP1 concentration is determined by dividing the signal measured at 665 nm by that measured at 620 nm (ratio).
The results are expressed as a percent inhibition of the control response to 30 nM 5-HT. […]
A general note: Time-resolved FRET reads energy transfer from a long-lived donor to a nearby acceptor.

The target of data set [4] is T1, human 5-HT2B receptor. Description: 5-HT2B agonist effect, IP1 production (HTRF) in transfected CHO cells. The data set is classed as cell-based. The note with it: IP1 production vs 1 μM 5-HT control. How it is done:
as §1
Cells were suspended in a buffer containing 10 mM Hepes/NaOH (pH 7.4), 4.2 mM KCl, 146 mM NaCl, 1 mM CaCl2), 0.5 mM MgCl2, 5.5 mM glucose and 50 mM LiCl, then distributed in microplates at a density of 4.104 cells/well and incubated for 30 min at 37° C. in the presence of buffer (basal control), test compound or reference agonist.
For stimulated control measurement, separate assay wells contain 1 μM 5-HT. Following incubation, the cells are lysed and the fluorescence acceptor (D2-labeled IP1) and fluorescence donor (anti-IP1 antibody labelled with europium cryptate) are added.
After 60 min at room temperature, the fluorescence transfer is measured at A ex=337 nm and A em=620 and 665 nm using a microplate reader (Rubystar, BMG).
as §2
The results are expressed as a percent of the control response to 1 μM 5-HT. The standard reference agonist is 5-HT, which is tested in each experiment at several concentrations to generate a concentration-response curve from which its EC50 value is calculated.

Data set [5] in a line: Plasma concentrations in human clinical trials in epilepsy. The data set is classed as in vivo.
Data set [6] deals with T2, human recombinant 5-HT2C receptor (Homo sapiens, UniProt P28335).
T2 sequence (P28335 33-458): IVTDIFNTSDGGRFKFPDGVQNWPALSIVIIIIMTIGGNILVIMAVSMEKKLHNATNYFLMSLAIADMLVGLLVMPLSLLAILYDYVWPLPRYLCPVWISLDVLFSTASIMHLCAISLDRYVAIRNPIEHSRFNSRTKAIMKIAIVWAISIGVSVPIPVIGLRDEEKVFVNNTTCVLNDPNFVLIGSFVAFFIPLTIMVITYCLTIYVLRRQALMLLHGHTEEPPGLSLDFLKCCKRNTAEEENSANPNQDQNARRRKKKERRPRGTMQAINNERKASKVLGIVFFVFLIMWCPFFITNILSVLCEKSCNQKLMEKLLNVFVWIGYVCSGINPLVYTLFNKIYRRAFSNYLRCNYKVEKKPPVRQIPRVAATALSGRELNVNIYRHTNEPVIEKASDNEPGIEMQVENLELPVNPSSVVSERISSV
Description: Inhibition of specific binding at human recombinant 5-HT2C receptors (FIG. 2B).

The text below walks through data of patent US11419829B2, “Use of cannabidiol in combination with 5-HT2B receptor agonists or amphetamines in the treatment of epilepsy” (GW Research Limited, priority 2017, dated 2022).

SMILES strings stand for the structures. Structures can show the parent of a compound that is named as a salt.

By ED50 is commonly meant the dose at which the effect has come halfway, by size or by number of responders. Take `CCNC(C)Cc1cccc(C(F)(F)F)c1` (stereo not drawn) [FEN, fenfluramine hydrochloride, reference compound]: in data set [1] (Effect 40%), the “Drug alone dose for the given effect” value was 4.19 mg/kg and the “Dose Reduction Index (DRI)” value was 3.639 fold. Besides, in data set [1] (Effect 80%), the “Drug alone dose for the given effect” value was 8.26 mg/kg and the “Dose Reduction Index (DRI)” value is recorded as 3.306 fold. Besides, in data set [1] (Effect 90%), the “Drug alone dose for the given effect” value is on record as 11.24 mg/kg and the “Dose Reduction Index (DRI)” value is 2.921 fold. Besides, in data set [1], the “doses with statistically significant (p<0.05) anticonvulsant effect vs vehicle” value is 10 mg/kg; the “effect on incidence of MES vs vehicle, drug alone” value is “no significant effect”; the ED50 is 4.9 mg/kg. Moreover, the “effect on seizure frequency” value in data set [2] was “reduce seizure frequency”.
As usually defined, the Kb is the equilibrium dissociation constant of an antagonist, usually derived from a functional assay. `C=C(C)[C@@H]1CCC(CO)=C[C@H]1c1c(O)cc(CCCCC)cc1O` [7-OH-CBD, 7-hydroxy cannabidiol] displayed a Kb in data set [3] of 0.69 µM. For the same molecule, the “agonist activity at 5-HT2B receptors” value in data set [4] is on record as “Neither CBD nor 7-OH-CBD possess agonist activity”. The “7-OH-CBD concentration relative to that achieved by CBD” value in data set [5] (clinical use of CBD) is on record as about 50%.
Take `C=C(C)[C@@H]1CCC(C)=C[C@H]1c1c(O)cc(CCCCC)cc1O` [CBD, cannabidiol]: in data set [1] (Effect 40%), the “Drug alone dose for the given effect” value is 28.46 mg/kg and the “Dose Reduction Index (DRI)” value is 1.006 fold. Also, in data set [1] (Effect 80%), the “Drug alone dose for the given effect” value is on record as 56.55 mg/kg and the “Dose Reduction Index (DRI)” value is 2.704 fold. Further, in data set [1] (Effect 90%), the “Drug alone dose for the given effect” value is on record as 77.15 mg/kg and the “Dose Reduction Index (DRI)” value is on record as 5.690 fold. In addition, in data set [1], the “doses with statistically significant (p<0.05) anticonvulsant effect vs vehicle” value is 50 to 100 mg/kg; the “effect on incidence of MES vs vehicle, drug alone” value is “no significant effect”; the 50% effective dose (ED50) is 33.2 mg/kg. This molecule had an antagonist dissociation constant (Kb) in data set [3] of 3.7 µM. In addition, the “interaction with the 5-HT2C receptor” value in data set [6] is reported as “does not act upon the 5-HT2C receptors”. For the same molecule, the “agonist activity at 5-HT2B receptors” value in data set [4] is recorded as “Neither CBD nor 7-OH-CBD possess agonist activity”. In data set [5] (human clinical trials in epilepsy, plasma), the plasma concentration reached entry is reported as “up to 330 ng/mL”. The same molecule gave a molar plasma concentration in data set [5] (human clinical use of CBD, plasma) of about 1 µM.
